Laboratory results published in PMC6877086, “Novel charged sodium and calcium channel inhibitor active against neurogenic inflammation” (eLife, 2019).
Structures can show the parent of a compound that is named as a salt.

Assays:
Format in all cases: cell-based
Cav2.2 [1] = biological target: T1, Cav2.2 (Rattus norvegicus, UniProt Q02294); assay: whole-cell patch clamp, Ba2+ current, external and internal application
T1 construct: gene Cacna1b; rat Cav2.2 stably expressed with β3 and α2δ−1 subunits in tsA201 cell line; with β3 subunit and α2δ−1 subunit

Nav1.7 [2] = biological target: T2, Nav1.7 (Homo sapiens, UniProt Q15858); assay: whole-cell patch clamp, external application; KI estimated from shift in channel availability
T2 construct: gene SCN9A; human Nav1.7 stably expressed in HEK cell line
T2 sequence (Q15858 whole entry): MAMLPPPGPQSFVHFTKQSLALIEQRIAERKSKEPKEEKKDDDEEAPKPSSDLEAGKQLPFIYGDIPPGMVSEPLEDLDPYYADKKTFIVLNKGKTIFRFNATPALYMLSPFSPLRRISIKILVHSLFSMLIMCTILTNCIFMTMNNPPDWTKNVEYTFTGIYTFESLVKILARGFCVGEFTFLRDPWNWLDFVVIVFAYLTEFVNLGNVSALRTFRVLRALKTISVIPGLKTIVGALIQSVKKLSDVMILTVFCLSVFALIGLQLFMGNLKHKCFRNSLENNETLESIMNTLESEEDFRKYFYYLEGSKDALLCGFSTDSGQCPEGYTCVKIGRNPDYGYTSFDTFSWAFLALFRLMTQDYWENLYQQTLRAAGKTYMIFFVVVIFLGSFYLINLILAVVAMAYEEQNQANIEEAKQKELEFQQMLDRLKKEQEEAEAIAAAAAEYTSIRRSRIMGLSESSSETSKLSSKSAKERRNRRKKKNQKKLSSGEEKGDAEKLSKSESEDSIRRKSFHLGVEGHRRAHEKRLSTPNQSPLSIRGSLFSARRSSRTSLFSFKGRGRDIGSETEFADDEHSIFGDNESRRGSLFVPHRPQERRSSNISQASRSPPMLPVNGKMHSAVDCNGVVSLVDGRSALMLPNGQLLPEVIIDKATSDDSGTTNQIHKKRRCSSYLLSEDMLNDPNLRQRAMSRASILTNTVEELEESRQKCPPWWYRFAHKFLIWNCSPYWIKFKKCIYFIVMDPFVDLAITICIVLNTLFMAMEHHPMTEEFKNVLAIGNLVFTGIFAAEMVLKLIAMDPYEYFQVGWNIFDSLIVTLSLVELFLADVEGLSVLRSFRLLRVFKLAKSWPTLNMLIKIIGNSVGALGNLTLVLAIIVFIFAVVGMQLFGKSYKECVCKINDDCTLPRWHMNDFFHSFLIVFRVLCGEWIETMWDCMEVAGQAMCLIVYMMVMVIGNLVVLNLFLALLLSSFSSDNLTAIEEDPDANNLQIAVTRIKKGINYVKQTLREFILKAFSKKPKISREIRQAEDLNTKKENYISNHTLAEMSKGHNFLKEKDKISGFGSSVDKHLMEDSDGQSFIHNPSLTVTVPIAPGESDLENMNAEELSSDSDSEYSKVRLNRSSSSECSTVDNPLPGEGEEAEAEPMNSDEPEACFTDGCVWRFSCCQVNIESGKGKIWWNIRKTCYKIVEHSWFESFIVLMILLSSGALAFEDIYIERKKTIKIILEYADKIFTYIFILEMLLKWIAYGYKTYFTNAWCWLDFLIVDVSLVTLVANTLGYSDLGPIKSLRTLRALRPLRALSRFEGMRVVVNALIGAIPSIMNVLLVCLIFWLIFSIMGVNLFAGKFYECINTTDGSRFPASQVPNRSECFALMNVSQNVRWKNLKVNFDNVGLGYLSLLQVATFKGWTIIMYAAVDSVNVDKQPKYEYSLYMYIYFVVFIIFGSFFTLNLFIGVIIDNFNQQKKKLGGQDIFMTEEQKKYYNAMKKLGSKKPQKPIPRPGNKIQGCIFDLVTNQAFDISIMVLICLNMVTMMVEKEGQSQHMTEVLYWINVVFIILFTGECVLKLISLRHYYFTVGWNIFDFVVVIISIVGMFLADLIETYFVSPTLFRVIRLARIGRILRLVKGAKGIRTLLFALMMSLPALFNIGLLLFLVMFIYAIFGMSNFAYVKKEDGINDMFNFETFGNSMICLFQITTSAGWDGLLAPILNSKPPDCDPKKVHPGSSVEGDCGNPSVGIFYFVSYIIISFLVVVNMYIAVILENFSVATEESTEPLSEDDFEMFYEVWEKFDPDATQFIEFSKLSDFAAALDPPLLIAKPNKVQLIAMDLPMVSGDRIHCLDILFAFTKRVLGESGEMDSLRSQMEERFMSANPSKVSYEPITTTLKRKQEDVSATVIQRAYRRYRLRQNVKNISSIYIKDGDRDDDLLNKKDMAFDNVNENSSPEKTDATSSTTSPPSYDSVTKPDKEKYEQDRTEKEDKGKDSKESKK

Cav2.2 [3] = biological target: T1, Cav2.2; assay: whole-cell patch clamp, Ba2+ current
Nav1.7 [4] = biological target: T2, Nav1.7; assay: whole-cell patch clamp, use-dependent inhibition at […] Hz

Structure (SMILES): COc1ccc(CNC(=O)C(CSCC2CCCC2)[N+](C)(C)CCC(C)(C)C)cc1 (centres unmarked) [CNCB-2, [2-Cyclopentylmethylsulfanyl-1-(4-methoxy-benzylcarbamoyl)-ethyl]−(3,3-dimethyl-butyl)-dimethyl-ammonium, chloride salt]
- whole-cell patch clamp, Ba2+ current, external and internal application (Cav2.2 [1]): current reduced to 5 ± 2% of control by 100
- Kd (Nav1.7 [2]): 710 nM

Structure (SMILES): COc1ccc(CNC(=O)C(CSCC2CCCC2)NCCC(C)(C)C)cc1 (centres unmarked) [NNCB-2, 3-Cyclopentylmethylsulfanyl-2-(3,3-dimethyl-butylamino)-N-(4-methoxy-benzyl)-propionamide]
- inhibition at 10 µM (Cav2.2 [3]): ~60%

Structure (SMILES): CCCCN1CCCCC1C(=O)Nc1c(C)cccc1C (centres unmarked) [bupivacaine]
- whole-cell patch clamp, use-dependent inhibition at 10 Hz (Nav1.7 [4]): current reduced to 22 ± 4% (no drug 77 ± 3%) by 10

Structure (SMILES): CCN(CC)CC(=O)Nc1c(C)cccc1C [lidocaine]
- whole-cell patch clamp, use-dependent inhibition at 10 Hz (Nav1.7 [4]): current reduced to 57 ± 7% of control (no drug 77 ± 3%) by 30
